{"source": "patent US10786475B2", "about": "“Method for preventing, treating, or improving fatty liver by administering effective amounts of azelaic acid to a subject” (Korea University Research and Business Foundation, priority 2018, dated 2020)", "key": {"PPARα": {"biological_target": "T1, PPARα (Mus musculus, UniProt P23204)", "T1 construct": "host or cells: HEK293 cells (Korean Cell Line Bank)", "T1 sequence (P23204 1-468)": "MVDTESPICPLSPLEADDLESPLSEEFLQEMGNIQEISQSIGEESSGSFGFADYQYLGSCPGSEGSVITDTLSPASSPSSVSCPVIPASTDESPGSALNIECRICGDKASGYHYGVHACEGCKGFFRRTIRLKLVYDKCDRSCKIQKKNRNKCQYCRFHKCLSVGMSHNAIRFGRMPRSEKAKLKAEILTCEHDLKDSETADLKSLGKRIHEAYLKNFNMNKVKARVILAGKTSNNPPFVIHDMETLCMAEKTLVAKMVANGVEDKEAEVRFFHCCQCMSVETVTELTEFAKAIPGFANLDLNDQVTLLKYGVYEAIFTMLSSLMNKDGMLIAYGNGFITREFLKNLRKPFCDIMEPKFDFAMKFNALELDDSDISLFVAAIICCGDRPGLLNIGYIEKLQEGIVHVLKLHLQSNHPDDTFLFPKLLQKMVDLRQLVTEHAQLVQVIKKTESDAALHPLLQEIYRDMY", "assay": "PPRE-luciferase assay in HEK293 cells", "format": "cell-based", "conditions": "HEK293 cells transfected with pSG5-PPAR alpha, various concentrations of AzA", "procedure": "To measure PPRE-luciferase, HEK293 cells (Korean Cell Line Bank) seeded on a 24-well plate at […] cells/well were used. pSG5-PPAR alpha (Addgene, MA, USA) was co-transfected according to a given protocol using pCMV-3×PPRE-Luc, a Renilla expression vector and Lipofectamine 2000 (Invitrogen). After 24-hour post-transfection, the cells were treated with various concentrations of an AzA, and then analyzed using a dual luciferase assay kit (Promega, Fitchburg, Wis., USA) and Victor X2 (PerkinElmer, Santa Clara, Calif.). A luciferase fluorescent signal was standardized using Renilla."}, "[1]": {"tested_on": "fatty liver-induced mouse", "assay": "Fatty liver inhibitory effect in high-fat diet fatty liver-induced wild-type C57BL/6J mouse", "format": "in vivo", "conditions": "WT mouse", "procedure": "Mice used in the example, which were an eight-week-old C57BL/6J model, were purchased from Samtako, and Olfr544 KO mice were manufactured by Macrogen based on the C57BL/6J model using a CRISPR/Cas9 system. All experiments performed in the example are compliant to a protocol approved by the Animal Experiment Ethics Committee at Korea University (Protocol No. KUIACUC-20170322-1). The mice were acclimated at 21 to 25° C. under a 50 to 60% relative humidity condition for 12 hours before being used in the experiments, and a total of 18 mice were treated with an AzA diluted with distilled water at 50 mg/kg of body weight and distilled water as a control through oral administration for 6 weeks. The mice used in the experiments were fed a high-fat diet containing 60% fat (D12492, Research Diets, Inc) to induce fatty liver, and then a body weight was measured every week.\nThe measurement of the concentration of triglycerides in liver tissue was performed by homogenizing the obtained liver tissue of a mouse in 600 μL of acetone (Daejung, Korea), storing the homogenate at 4° C. for 24 hours, and obtaining a fat part by centrifugation at 12000 rpm for 10 minutes. The fat part was dried, dissolved in 95% ethanol, quantified using a Cobas C11 autoanalyzer (Roche, Basel, Switzerland), and normalized with a liver weight.\nRNA was extracted from liver tissue, and the expression of PPARα and PPARα downstream genes such as Acox1, Cpt1a and Hmgcs2 were analyzed by qPCR according to the method of Example 3-1 described above.\nTo evaluate fatty acid oxidation, 100 mg of liver tissue was homogenized in a 0.25 M cold sucrose solution, centrifuged at 600 rpm and 4° C. thereby obtaining a supernatant, and then 50 μL of 10% Triton X-100 was added to 450 μL of the supernatant. Subsequently, 5 μL of the sample was mixed with 950 μL of 50 mM Tris-HCl, 10 μL of 20 mM NAD, 3 μL of 0.33 M dithiothreitol, 5 μL of 1.5% BSA, 5 μL of 2% Triton X-100, 10 μL of 10 mM CoA, and 10 μL of 1 mM FAD. The mixture was mixed with 2 μL of 5 mM palmitoyl-CoA, reacted at 37° C. and analyzed at 340 nm for 5 minutes using a spectrophotometer.\nA C57BL/6J mouse and an Olfr544 KO mouse were treated with HFD and an AzA for 6 weeks and housed in a metabolic cage for three days, and the result at day 3 was analyzed as an experimental result. An oxygen consumption amount (VO2) and a carbon dioxide production amount (VCO2) were analyzed using an Oxylet Physiocage System (Panlab/Harvard apparatus, Cornella, Spain) and suiteMETABOLISM (V2.2.01, Panlab) software. A respiratory quotient (RQ) was calculated using the formula VCO2/VO2, and energy expenditure was analyzed using the formula EE=VO2×1.11×(3.815+1.232×RQ). The oxidation of a free fatty acid was calculated using the formula (1.6946×VO2)−(1.7012×VCO2).\nAn AzA (100 mg/kg) was intraperitoneally administered, and then concentration of a glycerol, which is a body fat decomposition marker, was measured. […] To measure glucose resistance and insulin resistance, a glucose and insulin resistance test was performed under a condition, in which glucose ([…]) and insulin (0.35 unit/kg/bw) are administered to a mouse."}, "[2]": {"conditions": "HFD and AzA for 6 weeks, metabolic cage day 3"}, "[3]": {"conditions": "high-fat diet, AzA 50 mg/kg oral, 6 weeks"}, "[4]": {"conditions": "high-fat diet, AzA 50 mg/kg oral, 6 weeks, compared with control group"}}, "data": [{"smiles": "O=C(O)CCCCCCCC(=O)O", "note": "[AzA, nonanedioic acid]", "values": [{"measurement": "PPARα activity (PPRE-luciferase): direct ligand for PPARα", "setting": "PPARα", "result": "does not act as a direct ligand for PPARα"}, {"measurement": "glucose resistance (glucose resistance test)", "setting": "[1]", "result": "significantly improved"}, {"measurement": "insulin resistance (insulin resistance test)", "setting": "[1]", "result": "significantly improved"}, {"measurement": "abdominal fat (microCT)", "setting": "[1]; AzA 50 mg/kg/day", "result": "significantly decreased"}, {"measurement": "total fat amount (microCT)", "setting": "[1]; AzA 50 mg/kg/day", "result": "significantly decreased"}, {"measurement": "blood glycerol concentration (body fat decomposition marker)", "setting": "[1]; AzA 100 mg/kg intraperitoneally", "result": "stimulated the decomposition of body fats"}, {"measurement": "oxidation of free fatty acids (indirect calorimetric analysis)", "setting": "[1]; [2]", "result": "increase"}, {"measurement": "respiratory quotient (indirect calorimetric analysis)", "setting": "[1]; [2]", "result": "decrease"}, {"measurement": "expression of PPARα and a target gene thereof in liver tissue", "setting": "[1]; [3]", "result": "significantly increased"}, {"measurement": "triglyceride concentration in liver tissue", "setting": "[1]; [3]", "result": "decreased"}, {"measurement": "body weight", "setting": "[1]; [4]", "result": "decreased"}, {"measurement": "fatty acid oxidation rate in liver tissue", "setting": "[1]; [4]", "result": "increased"}]}]}
